Key:
HCT116 cells = assay: Cell Proliferation/Viability Assay (Cell Titer-Blue); assay type: cell-based; settings: Homo sapiens, HCT-116, 3-day (72-hour) incubation, single assay or mean of multiple assays
Procedure: Cell Proliferation/Viability Assay
Viable cells after a 3-day (72-hour) incubation with ERK compounds were quantified using the Cell Titer-Blue Cell Viability Assay from Promega.
Materials and Methods: HCT116 cells were plated in 96 well micro-plates at a density of 1,000 cells/well. The cells were allowed to attach to micro-plate overnight at 37 °C/5% CO2. After overnight attachment, diluted compounds were then added to the cells at a final concentration of 0.5% DMSO. After 3 days (72 hours) at 37 °C/5% CO2, the number of viable cells was determined using the Cell Titer-Blue Cell Viability Assay from Promega. Briefly, Cell Titer-Blue reagent were added to the cells and incubated for 1 hour. Fluorescence (560nmexcitation/590nmemission) was then read using a fluorescence micro-plate reader. Background from high concentration Erk-inhibited wells was subtracted. Representative data is in TABLE III (infra). The reported IC50 may be from a single assay or the mean of multiple assays.

[1] = tested on: PMA-stimulated P90RSK(Ser380) phosphorylation; assay: Cellular P90RSK(Ser380) Phosphorylation Assay; assay type: cell-based; settings: Homo sapiens; HepG2 cells, 1.5 h compound incubation, PMA 100ng/mL 30 min, normalized to GAPDH signal; single assay or mean of multiple assays
Procedure: Cellular P90RSK(Ser380) Phosphorylation Assay
Inhibition of PMA-stimulated P90RSK(Ser380) phosphorylation was determined by the following in vitro cellular mechanistic assay, which comprises incubating cells with a compound for 1.5 h and quantifying fluorescent pP90RSK(Ser380) signal on fixed cells and normalizing to GAPDH signal.
Materials and Methods: HepG2 cells were obtained from ATCC and grown in DMEM supplemented with 10% fetal bovine serum. Cells were plated in 96-well plates at 35,000 cells/well and allowed to attach overnight at 37 °C/5% CO2. Diluted compounds were then added at a final concentration of 0.5% DMSO. After 1.5 h compound incubation, cells were stimulated with the addition of PMA (phorbol 12-myristate 13-acetate) at a final concentration of 100ng/mL; the PMA stimulation was a 30-min incubation at 37 °C/5% CO2. After the 30-minute PMA stimulation, cells were washed with PBS and fixed in 3.7% formaldehyde in PBS at room temperature for 15-20 min. This was followed by another wash in PBS and then permeabilization in 100% MeOH at room temperature for 10-15 min. Following the permeabilization incubation, cells were washed in PBS/0.05% Tween-20, followed by a block in Odyssey blocking buffer (LI-COR Biosciences) for at least 1 hour. Antibodies to phosphorylated P90RSK(Ser380) (Cell Signaling #9335, rabbit monoclonal) and GAPDH (Fitzgerald 10R-G109a, mouse monoclonal) were added to the cells and incubated overnight at 4 °C. pP90RSK(Ser380) antibody was used at a 1:250 dilution; GAPDH was used at a 1:10,000 dilution. After washing with PBS/0.05% Tween-20, the cells were incubated with fluorescently-labeled secondary antibodies (Anti-rabbit-Alexa Flour680, Invitrogen Cat#A21109; Anti-mouse-IRDye800CW, Rockland Inc. Cat#610-131-121) for 1 h. Both secondary antibodies were used at a 1:1000 dilution. Cells were then washed and analyzed for fluorescence at both wavelengths using the Odyssey Infrared Imaging System (LI-COR Biosciences). Phosphorylated P90RSK(Ser380) signal was normalized to GAPDH signal. Representative data is in TABLE III (infra). The reported IC50 may be from a single assay or the mean of multiple assays.

[2] = molecular target: T1, human ERK-2 (Mitogen Activated Kinase 1) (Homo sapiens, UniProt P28482); assay: ERK-2 Enzymatic Assay; assay type: biochemical; settings: TABLE I; 5nM ERK-2 enzyme, 25µM ATP, S/T17 peptide substrate; single assay or mean of multiple assays
T1 construct: N-terminal 6-His fusion protein in E. coli and corresponding to aa 8-360; 6-His (N); made in house; host or cells: E. coli
T1 sequence (P28482 8-360): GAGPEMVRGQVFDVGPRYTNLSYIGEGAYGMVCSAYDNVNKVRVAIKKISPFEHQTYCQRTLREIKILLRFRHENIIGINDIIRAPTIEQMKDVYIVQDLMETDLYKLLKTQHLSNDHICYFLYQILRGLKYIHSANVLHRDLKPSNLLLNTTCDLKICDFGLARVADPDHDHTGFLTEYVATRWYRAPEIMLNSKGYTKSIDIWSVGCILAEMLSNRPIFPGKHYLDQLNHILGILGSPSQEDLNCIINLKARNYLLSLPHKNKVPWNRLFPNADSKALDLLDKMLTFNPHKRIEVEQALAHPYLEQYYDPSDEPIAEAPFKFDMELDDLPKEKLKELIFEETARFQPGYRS
Outline: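 Values are single or averaged runs. Reactions used E. coli-expressed 6-His ERK-2 aa 8-360 and Omnia S/T17 peptide substrate at ambient temperature.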

| Compound | IC50 (HCT116 cells) [nM] | IC50 [1] [nM] | IC50 [2] [nM] |
| --- | --- | --- | --- |
| C[C@@H]1CC[C@H]([C@@H](NC(=O)c2ccc3cnc(NC4CCOCC4)nc3c2)c2ccc(Cl)c(F)c2)N1 [Compound I-35, 2-(tetrahydropyran-4-ylamino)-quinazoline-7-carboxylic acid [(S)-(4-chloro-3-fluoro-phenyl)-((2R,5R)-S-methyl-pyrrolidin-2-yl)-methyl]-amide] | 44 | 5.3 | 2 |
| O=C(N[C@@H](c1ccc(F)c(Cl)c1)[C@@]1(F)CCNC1)c1ccc2cnc(NC3CCOCC3)nc2c1 [Compound I-39] | 10 | 17.4 | 1.2 |

— patent EP2739618B1, “QUINAZOLINE COMPOUNDS AS SERINE/THREONINE KINASE INHIBITORS” (Array Biopharma, Inc., priority 2011, dated 2013)
